Measured values published in PubChem BioAssay AID2060909 (Molecular Pharmacology Branch, DTP, NCI, 2025).
pIC50: −log10 of the molar value.

System: 362531-283-R-J2-PDC complex spheroid viability
Test: Anticancer human tumor 362531-283-R-J2-PDC patient-derived colon adenocarcinoma cell line growth inhibition [RAS]
Conditions: for pIC50: curve of first compound; for viability, T/C: stronger effect = lower value
Description: RAS pathway inhibitors in Combinations in Complex Spheroids
A high-throughput screen of multi-cell type tumor spheroids was designed to identify active combinations of RAS pathway inhibitors and targeted small molecules. Complex spheroids include a stromal component modeled by human endothelial cells (HUVEC) and fibroblasts modeled by human mesenchymal stem cells (MSCs). The concentration ranges selected for each drug and investigational agent were based upon clinically achievable concentrations if the clinical Cmax of the agent was known.
Compounds. The drugs and investigational agents: abemaciclib (NSC768073), cobimetinib (NSC768068), divarasib (GDC6063, NSC841802), docetaxel (NSC628503), GDC-1971 (RLY-1971, NSC841576), gemcitabine (NSC613327), inavolisib (NSC800729), ipatasertib (NSC767898), KB-0742 (NSC834161), MRTX-1133 (NSC836407), osimertinib (NSC779217), RMC-4630 (NSC839698), RMC-6236 (NSC851965), RMC-6291 (NSC852671), Ro-3306 (NSC812927), sapanisertib (NSC764658), SN-38 (NSC673596), staurosporine (NSC755774), SY5609 (NSC837396), and tovorafenib (DAY101, NSC766906), were obtained from the National Cancer Institute (NCI) Developmental Therapeutics Program Chemical Repository. The FDA-approved anticancer drug set is available from the NCI Developmental Therapeutics Program. […] The stock solutions were prepared in dimethyl sulfoxide (DMSO, Sigma-Aldrich, St. Louis, MO, cat. D2650) at 800-fold the tested concentration and stored at -70 degrees C prior to their use. All drugs and investigational agents were tested over a range starting from a high concentration at or near the clinical Cmax and decreasing in half-log increments. If the clinical Cmax for an agent had not been determined, the highest concentration tested was 10 microM.
Cell Culture. All cells were maintained in an incubator at 37 degrees C and 5% CO2 with 95% humidity. The PDC lines were cultured according to standard operating procedures established by the NCI PDMR. All PDCs were thawed and cultured in Matrigel-coated flasks prepared with a working solution of 1X Ham's F-12 nutrient mix, without supplementation (Invitrogen, Waltham, MA, cat. 11765054), 100 U/mL penicillin-streptomycin (Invitrogen, cat. 15140122), and 2.5% Matrigel (Corning Inc., Corning, NY, cat. 354248) for the first three passages. The 362531-283-R-J2-PDC and 782815-120-R-J1-PDC lines were cultured in 6C/Colon 1B media, which includes advanced DMEM/F-12 (Thermo Fisher Scientific, cat. 12634028), 10 mM HEPES (Thermo Fisher Scientific, cat. 15630080), 1X GlutaMAX supplement (Thermo Fisher Scientific, cat. 35050061), 0.1 mg/mL primocin (InvivoGen, San Diego, CA, cat. ant-pm-2), 10% defined fetal bovine serum, heat inactivated (HyClone Laboratories Inc., Logan, UT, cat. SH30070.03HI), 50% L-WRN conditioned media (ATCC, cat. CRL-3276), 1.25 mM N-Acetyl-L-cysteine (Sigma-Aldrich, cat. A9165), 10 mM nicotinamide (Sigma-Aldrich, cat. N0636), 1X B-27 supplement (Thermo Fisher Scientific, cat. 17504044), 1X N-2 supplement (Thermo Fisher Scientific, cat. 17502048), 50 ng/mL human EGF (Thermo Fisher Scientific, cat. PHG0311), and 10 microM Y-27632 dihydrochloride (Tocris Bioscience, cat. 1254). The K12877-001-R-J1-PDC line was cultured in 6I media, which includes all 6C/Colon 1B media plus 10 ng/mL human FGF-10 (PeproTech, cat. 100-26), 1 ng/mL human FGF-2 (PeproTech, cat. 100-18B), 1 µM prostaglandin E2 (Tocris Bioscience, cat. 2296), […] hydrocortisone (Sigma-Aldrich, cat. H4001), and […] bovine insulin (Sigma-Aldrich, cat. I6634). The K86415-001-R-J1-PDC line was cultured in 6D media, which includes all 6C/Colon 1B media components minus the L-WRN conditioned media. The 485176-168-R4-J1-PDC was cultured in PANC media, which includes all 6C/Colon 1B media plus 100 ng/mL human FGF-10 (PeproTech, cat. 100-26), 500 nM SB-431542 (Selleckchem, cat. S1067), and 10 nM gastrin (Tocris Bioscience, cat. 3006). […]
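Further: spheroids exposed to the agents for 7 days before readout.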
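Wherever viability, T/C is given: luminescence viability as percent of DMSO vehicle control wells.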

What does the source list for O=C(c1ccc(F)c(F)c1Nc1ccc(I)cc1F)N1CC(O)([C@@H]2CCCCN2)C1 + C#Cc1c(F)ccc2cc(O)cc(-c3ncc4c(N5CC6CCC(C5)N6)nc(OCC56CCCN5CC(F)C6)nc4c3F)c12?
pIC50 (second compound 0.0316 µM): 6.38; pIC50 (second compound 0.1 µM): 6.46; pIC50 (second compound 0.316 µM): 6.46; pIC50 (second compound 1 µM): 6.74; pIC50 (second compound 3.16 µM): 7.43; pIC50 (second compound 10 µM): > 8.50; viability, T/C (second compound 0.0316 µM, first compound 0.00316 µM): 97.9%; viability, T/C (second compound 0.0316 µM, first compound 0.01 µM): 101%; viability, T/C (second compound 0.0316 µM, first compound 0.0316 µM): 101%; viability, T/C (second compound 0.0316 µM, first compound 0.1 µM): 88.1%; viability, T/C (second compound 0.0316 µM, first compound 0.316 µM): 62.9%; viability, T/C (second compound 0.0316 µM, first compound 1 µM): 8.48%; viability, T/C (second compound 0.1 µM, first compound 0.00316 µM): 97.6%; viability, T/C (second compound 0.1 µM, first compound 0.01 µM): 98.4%; viability, T/C (second compound 0.1 µM, first compound 0.0316 µM): 95.5%; viability, T/C (second compound 0.1 µM, first compound 0.1 µM): 72.1%; viability, T/C (second compound 0.1 µM, first compound 0.316 µM): 57.6%; viability, T/C (second compound 0.1 µM, first compound 1 µM): 4.9%; viability, T/C (second compound 0.316 µM, first compound 0.00316 µM): 90.1%; viability, T/C (second compound 0.316 µM, first compound 0.01 µM): 88.1%; viability, T/C (second compound 0.316 µM, first compound 0.0316 µM): 78.1%; viability, T/C (second compound 0.316 µM, first compound 0.1 µM): 66.3%; viability, T/C (second compound 0.316 µM, first compound 0.316 µM): 61.3%; viability, T/C (second compound 0.316 µM, first compound 1 µM): 3.76%; viability, T/C (second compound 1 µM, first compound 0.00316 µM): 82.6%; viability, T/C (second compound 1 µM, first compound 0.01 µM): 78.6%; viability, T/C (second compound 1 µM, first compound 0.0316 µM): 78.2%; viability, T/C (second compound 1 µM, first compound 0.1 µM): 79.1%; viability, T/C (second compound 1 µM, first compound 0.316 µM): 22.9%; viability, T/C (second compound 1 µM, first compound 1 µM): 3.27%; viability, T/C (second compound 3.16 µM, first compound 0.00316 µM): 65.4%; viability, T/C (second compound 3.16 µM, first compound 0.01 µM): 60.5%; viability, T/C (second compound 3.16 µM, first compound 0.0316 µM): 56.5%; viability, T/C (second compound 3.16 µM, first compound 0.1 µM): 10.6%; viability, T/C (second compound 3.16 µM, first compound 0.316 µM): 9.05%; viability, T/C (second compound 3.16 µM, first compound 1 µM): 1.7%; viability, T/C (second compound 10 µM, first compound 0.00316 µM): 28%; viability, T/C (second compound 10 µM, first compound 0.01 µM): 31.1%; viability, T/C (second compound 10 µM, first compound 0.0316 µM): 13.9%; viability, T/C (second compound 10 µM, first compound 0.1 µM): 9.85%; viability, T/C (second compound 10 µM, first compound 0.316 µM): 6.01%; viability, T/C (second compound 10 µM, first compound 1 µM): 1.71%

What does the source list for C=CC(=O)Nc1cc(Nc2nccc(-c3cn(C)c4ccccc34)n2)c(OC)cc1N(C)CCN(C)C + CCn1c(-c2cc(N3CCN(C)CC3)cnc2C(C)OC)c2c3cc(ccc31)-c1csc(n1)CC(NC(=O)C1CC1C)C(=O)N1CCCC(N1)C(=O)OCC(C)(C)C2?
pIC50 (second compound 0.000949 µM): < 6.00; pIC50 (second compound 0.003 µM): < 6.00; pIC50 (second compound 0.00949 µM): 6.22; pIC50 (second compound 0.03 µM): 6.33; pIC50 (second compound 0.0949 µM): 6.89; pIC50 (second compound 0.3 µM): > 8.50; viability, T/C (second compound 0.000949 µM, first compound 0.00316 µM): 87.5%; viability, T/C (second compound 0.000949 µM, first compound 0.01 µM): 104%; viability, T/C (second compound 0.000949 µM, first compound 0.0316 µM): 91.4%; viability, T/C (second compound 0.000949 µM, first compound 0.1 µM): 88%; viability, T/C (second compound 0.000949 µM, first compound 0.316 µM): 98.2%; viability, T/C (second compound 0.000949 µM, first compound 1 µM): 65.6%; viability, T/C (second compound 0.003 µM, first compound 0.00316 µM): 97.7%; viability, T/C (second compound 0.003 µM, first compound 0.01 µM): 94.6%; viability, T/C (second compound 0.003 µM, first compound 0.0316 µM): 94.6%; viability, T/C (second compound 0.003 µM, first compound 0.1 µM): 89.3%; viability, T/C (second compound 0.003 µM, first compound 0.316 µM): 91.9%; viability, T/C (second compound 0.003 µM, first compound 1 µM): 63.1%; viability, T/C (second compound 0.00949 µM, first compound 0.00316 µM): 93.3%; viability, T/C (second compound 0.00949 µM, first compound 0.01 µM): 115%; viability, T/C (second compound 0.00949 µM, first compound 0.0316 µM): 81.1%; viability, T/C (second compound 0.00949 µM, first compound 0.1 µM): 78.9%; viability, T/C (second compound 0.00949 µM, first compound 0.316 µM): 80.4%; viability, T/C (second compound 0.00949 µM, first compound 1 µM): 31.4%; viability, T/C (second compound 0.03 µM, first compound 0.00316 µM): 92.2%; viability, T/C (second compound 0.03 µM, first compound 0.01 µM): 91.8%; viability, T/C (second compound 0.03 µM, first compound 0.0316 µM): 83%; viability, T/C (second compound 0.03 µM, first compound 0.1 µM): 85.6%; viability, T/C (second compound 0.03 µM, first compound 0.316 µM): 69.6%; viability, T/C (second compound 0.03 µM, first compound 1 µM): 11.8%; viability, T/C (second compound 0.0949 µM, first compound 0.00316 µM): 81.3%; viability, T/C (second compound 0.0949 µM, first compound 0.01 µM): 75.4%; viability, T/C (second compound 0.0949 µM, first compound 0.0316 µM): 76.5%; viability, T/C (second compound 0.0949 µM, first compound 0.1 µM): 59.2%; viability, T/C (second compound 0.0949 µM, first compound 0.316 µM): 18.5%; viability, T/C (second compound 0.0949 µM, first compound 1 µM): 10.8%; viability, T/C (second compound 0.3 µM, first compound 0.00316 µM): 42.3%; viability, T/C (second compound 0.3 µM, first compound 0.01 µM): 38.4%; viability, T/C (second compound 0.3 µM, first compound 0.0316 µM): 32.7%; viability, T/C (second compound 0.3 µM, first compound 0.1 µM): 23%; viability, T/C (second compound 0.3 µM, first compound 0.316 µM): 10.8%; viability, T/C (second compound 0.3 µM, first compound 1 µM): 8.2%
